In ChEMBL document CHEMBL4219034, “Synthesis, antimicrobial activity, structure-activity relationship and cytotoxic studies of a new series of functionalized (Z)-3-(2-oxo-2-substituted ethylidene)-3,4-dihydro-2H-benzo[b][1,4]oxazin-2-ones” (Bioorg Med Chem Lett, 2017):
Converted amounts (≈) assume the structure as drawn. The source made the active and inactive calls. The rule behind the calls is not given here.

How the values were obtained:
[1] = test system: Streptomyces griseus; assay: Antibacterial activity against Streptomyces griseus MTCC 4734 incubated for 24 hrs by serial dilution method; assay type: functional
[2] = test system: Staphylococcus aureus; assay: Antibacterial activity against Staphylococcus aureus MTCC 3381 incubated for 24 hrs by serial dilution method; assay type: functional; conditions: MTCC 3381, 24 h
[3] = test system: Bacillus subtilis; assay: Antibacterial activity against Bacillus subtilis MTCC 10619 incubated for 24 hrs by serial dilution method; assay type: functional
[4] = test system: Escherichia coli; assay: Antibacterial activity against Escherichia coli MTCC 443 incubated for 24 hrs by serial dilution method; assay type: functional; conditions: MTCC 443, 24 h
[5] = test system: Fusarium oxysporum; assay: Antifungal activity against Fusarium oxysporum ATCC 62506 incubated for 24 hrs by serial dilution method; assay type: functional; conditions: ATCC 62506, 24 h
[6] = test system: Aspergillus niger; assay: Antifungal activity against Aspergillus niger ATCC 9029 incubated for 24 hrs by serial dilution method; assay type: functional
[7] = test system: Talaromyces funiculosus; assay: Antifungal activity against Penicillium funiculosum ATCC 11797 incubated for 24 hrs by serial dilution method; assay type: functional
[8] = test system: Trichoderma reesei; assay: Antifungal activity against Trichoderma reesei ATCC 13631 incubated for 24 hrs by serial dilution method; assay type: functional
[9] = test system: Streptomyces griseus; assay: Antibacterial activity against Streptomyces griseus MTCC 4734 at 100 ug/ml incubated for 12 hrs by agar disc diffusion assay; assay type: functional; conditions: for zone of inhibition at 100 µg/mL: MTCC 4734, 12 h, read-out: IZ
[10] = test system: Staphylococcus aureus; assay: Antibacterial activity against Staphylococcus aureus MTCC 3381 at 100 ug/ml incubated for 12 hrs by agar disc diffusion assay; assay type: functional; conditions: MTCC 3381, 12 h, read-out: IZ
[11] = test system: Bacillus subtilis; assay: Antibacterial activity against Bacillus subtilis MTCC 10619 at 100 ug/ml incubated for 12 hrs by agar disc diffusion assay; assay type: functional; conditions: for zone of inhibition at 100 µg/mL: MTCC 10619, 12 h, read-out: IZ
[12] = test system: Escherichia coli; assay: Antibacterial activity against Escherichia coli MTCC 443 at 100 ug/ml incubated for 12 hrs by agar disc diffusion assay; assay type: functional; conditions: MTCC 443, 12 h, read-out: IZ
[13] = test system: Fusarium oxysporum; assay: Antifungal activity against Fusarium oxysporum ATCC 62506 at 100 ug/ml incubated for 72 hrs by agar disc diffusion assay; assay type: functional; conditions: ATCC 62506, 72 h, read-out: IZ
[14] = test system: Aspergillus niger; assay: Antifungal activity against Aspergillus niger ATCC 9029 at 100 ug/ml incubated for 72 hrs by agar disc diffusion assay; assay type: functional; conditions: for zone of inhibition at 100 µg/mL: ATCC 9029, 72 h, read-out: IZ
[15] = test system: Talaromyces funiculosus; assay: Antifungal activity against Penicillium funiculosum ATCC 11797 at 100 ug/ml incubated for 72 hrs by agar disc diffusion assay; assay type: functional; conditions: for zone of inhibition at 100 µg/mL: ATCC 11797, 72 h, read-out: IZ
[16] = test system: Trichoderma reesei; assay: Antifungal activity against Trichoderma reesei ATCC 13631 at 100 ug/ml incubated for 72 hrs by agar disc diffusion assay; assay type: functional; conditions: for zone of inhibition at 100 µg/mL: ATCC 13631, 72 h, read-out: IZ
[17] = Cytotoxicity against mouse NIH/3T3 cells assessed as cell viability at 25 ug/ml after 72 hrs by MTT assay relative to control; assay type: cell-based, NIH3T3; conditions: read-out: Activity
[18] = Cytotoxicity against mouse NIH/3T3 cells assessed as cell viability at 50 ug/ml after 72 hrs by MTT assay relative to control; assay type: cell-based, NIH3T3; conditions: read-out: Activity
[19] = Cytotoxicity against mouse NIH/3T3 cells assessed as cell viability at 100 ug/ml after 72 hrs by MTT assay relative to control; assay type: cell-based, NIH3T3; conditions: read-out: Activity
[20] = Cytotoxicity against mouse NIH/3T3 cells assessed as cell viability at 250 ug/ml after 72 hrs by MTT assay relative to control; assay type: cell-based, NIH3T3; conditions: read-out: Activity
[21] = test system: Bacillus subtilis; assay: Potency index, ratio of ampicillin MIC to compound MIC for Bacillus subtilis MTCC 10619 by serial dilution method; assay type: functional
[22] = test system: Bacillus subtilis; assay: Potency index, ratio of chloramphenicol MIC to compound MIC for Bacillus subtilis MTCC 10619 by serial dilution method; assay type: functional
[23] = test system: Staphylococcus aureus; assay: Potency index, ratio of ampicillin MIC to compound MIC for Staphylococcus aureus MTCC 3381 by serial dilution method; assay type: functional

O=C1Oc2cc([N+](=O)[O-])ccc2N/C1=C\C(=O)c1ccc(C2CCCCC2)cc1
MIC ([1]; MTCC 4734, 24 h): 50 µg/mL (≈ 127 µM) | MIC [2]: 12.5 µg/mL (≈ 31.9 µM) | MIC ([3]; MTCC 10619, 24 h): 3.12 µg/mL (≈ 7.95 µM) | MIC [4]: 25 µg/mL (≈ 63.7 µM) | MIC [5]: 25 µg/mL (≈ 63.7 µM) | MIC ([6]; ATCC 9029, 24 h): 100 µg/mL (≈ 255 µM) | MIC ([7]; ATCC 11797, 24 h): 100 µg/mL (≈ 255 µM) | MIC ([8]; ATCC 13631, 24 h): 25 µg/mL (≈ 63.7 µM) | zone of inhibition at 100 µg/mL [9]: 10 mm | zone of inhibition at 100 µg/mL [10]: 14 mm | zone of inhibition at 100 µg/mL [11]: 24 mm | zone of inhibition at 100 µg/mL [12]: 18 mm | zone of inhibition at 100 µg/mL [13]: 20 mm | zone of inhibition at 100 µg/mL [14]: 8 mm | zone of inhibition at 100 µg/mL [15]: 14 mm | zone of inhibition at 100 µg/mL [16]: 12 mm | viability at 72 h, 25 ug/ml [17]: 97.8% | viability at 72 h, 50 ug/ml [18]: 89% | viability at 72 h, 100 ug/ml [19]: 84.6% | viability at 72 h, 250 ug/ml [20]: 78.3% | Ratio [21]: 8 | Ratio [22]: 2

O=C1Oc2ccc([N+](=O)[O-])cc2N/C1=C\C(=O)c1ccc(-c2ccccc2)cc1
MIC ([1]; MTCC 4734, 24 h): 12.5 µg/mL (≈ 32.4 µM) | MIC [2]: 6.25 µg/mL (≈ 16.2 µM) | MIC ([3]; MTCC 10619, 24 h): 25 µg/mL (≈ 64.7 µM) | MIC [4]: 25 µg/mL (≈ 64.7 µM) | MIC [5]: 50 µg/mL (≈ 129 µM) | MIC [6]: inactive | MIC ([7]; ATCC 11797, 24 h): 25 µg/mL (≈ 64.7 µM) | MIC ([8]; ATCC 13631, 24 h): 100 µg/mL (≈ 259 µM) | zone of inhibition at 100 µg/mL [9]: 20 mm | zone of inhibition at 100 µg/mL [10]: 20 mm | zone of inhibition at 100 µg/mL [11]: 18 mm | zone of inhibition at 100 µg/mL [12]: 16 mm | zone of inhibition at 100 µg/mL [13]: 14 mm | inhibition zone (IZ) [14]: inactive | zone of inhibition at 100 µg/mL [15]: 16 mm | zone of inhibition at 100 µg/mL [16]: 10 mm | viability at 72 h, 25 ug/ml [17]: 91% | viability at 72 h, 50 ug/ml [18]: 83.5% | viability at 72 h, 100 ug/ml [19]: 77.6% | viability at 72 h, 250 ug/ml [20]: 77.1% | Ratio [23]: 2

O=C1Oc2ccc(Cl)cc2N/C1=C\C(=O)C1CC1
MIC [1]: inactive | MIC [2]: 12.5 µg/mL (≈ 47.4 µM) | MIC ([3]; MTCC 10619, 24 h): 100 µg/mL (≈ 379 µM) | MIC [4]: 50 µg/mL (≈ 190 µM) | MIC [5]: 12.5 µg/mL (≈ 47.4 µM) | MIC [6]: inactive | MIC [7]: inactive | MIC [8]: inactive | inhibition zone (IZ) [9]: inactive | zone of inhibition at 100 µg/mL [10]: 12 mm | zone of inhibition at 100 µg/mL [11]: 8 mm | zone of inhibition at 100 µg/mL [12]: 10 mm | zone of inhibition at 100 µg/mL [13]: 22 mm | inhibition zone (IZ) [14]: inactive | inhibition zone (IZ) [15]: inactive | inhibition zone (IZ) [16]: inactive | viability at 72 h, 25 ug/ml [17]: 99% | viability at 72 h, 50 ug/ml [18]: 90.3% | viability at 72 h, 100 ug/ml [19]: 86.6% | viability at 72 h, 250 ug/ml [20]: 79.1%

O=C1Oc2ccc([N+](=O)[O-])cc2N/C1=C\C(=O)C1CC1
MIC ([1]; MTCC 4734, 24 h): 6.25 µg/mL (≈ 22.8 µM) | MIC [2]: 100 µg/mL (≈ 365 µM) | MIC [3]: inactive | MIC [4]: 50 µg/mL (≈ 182 µM) | MIC [5]: 12.5 µg/mL (≈ 45.6 µM) | MIC ([6]; ATCC 9029, 24 h): 100 µg/mL (≈ 365 µM) | MIC [7]: inactive | MIC [8]: inactive | zone of inhibition at 100 µg/mL [9]: 22 mm | zone of inhibition at 100 µg/mL [10]: 6 mm | inhibition zone (IZ) [11]: inactive | zone of inhibition at 100 µg/mL [12]: 14 mm | zone of inhibition at 100 µg/mL [13]: 22 mm | zone of inhibition at 100 µg/mL [14]: 6 mm | inhibition zone (IZ) [15]: inactive | inhibition zone (IZ) [16]: inactive | viability at 72 h, 25 ug/ml [17]: 93.2% | viability at 72 h, 50 ug/ml [18]: 86% | viability at 72 h, 100 ug/ml [19]: 79.5% | viability at 72 h, 250 ug/ml [20]: 73.7%

O=C1Oc2cc([N+](=O)[O-])ccc2N/C1=C\C(=O)c1cccc2ccccc12
MIC [1]: inactive | MIC [2]: 100 µg/mL (≈ 278 µM) | MIC [3]: inactive | MIC [4]: 12.5 µg/mL (≈ 34.7 µM) | MIC [5]: 25 µg/mL (≈ 69.4 µM) | MIC [6]: inactive | MIC ([7]; ATCC 11797, 24 h): 25 µg/mL (≈ 69.4 µM) | MIC ([8]; ATCC 13631, 24 h): 25 µg/mL (≈ 69.4 µM) | inhibition zone (IZ) [9]: inactive | zone of inhibition at 100 µg/mL [10]: 8 mm | inhibition zone (IZ) [11]: inactive | zone of inhibition at 100 µg/mL [12]: 26 mm | zone of inhibition at 100 µg/mL [13]: 18 mm | inhibition zone (IZ) [14]: inactive | zone of inhibition at 100 µg/mL [15]: 20 mm | zone of inhibition at 100 µg/mL [16]: 18 mm | viability at 72 h, 25 ug/ml [17]: 93.5% | viability at 72 h, 50 ug/ml [18]: 88.9% | viability at 72 h, 100 ug/ml [19]: 83% | viability at 72 h, 250 ug/ml [20]: 76.3%
